Here are results for two molecules from patent US20120270908A1, “SUBSTITUTED 3 -HYDROZYPYRIDINES AND PHARMACEUTICAL COMPOSITIONS THEREOF” (priority 2007, published 2012).

Assay [1] concerns streptozotocin-induced male albino Wistar rats. The assay is described as follows: Streptozotocin-induced decompensated insulin resistance in rats: fasting serum glucose, plasma insulin, plasma triglycerides. In kind it is in vivo. Particulars: mean±SEM (n=10); for Glucose: fasting serum; for Insulin / Triglycerides: plasma. Here is the method: The rats with glucose levels more than 14.0 mmol/1 were used in the experiment one week after the streptozotocin injection.
Streptozotocin-induced rats were assigned to three groups: a control rats (n=10) and experimental rats (n=20). Control rats received daily i.p. injections of saline for 7 days. Experimental rats received daily i.p. injections of 10 mg/kg 2-Ethyl-4,6-dimethyl-3-hydroxypyridine, succinic acid salt (1:1); or 2-Ethyl-4,5,6-trimethyl-3-hydroxypyridine, succinic acid salt (1:1) for 7 days. Biochemical parameters were determined just before start of the treatment and on 14 day from the start of the treatment.

The next assay deals with T1, insulin receptor (Homo sapiens, UniProt P06213).
T1 construct: endogenous in cells; host or cells: HepG2 (human hepatoma)
Description: Activation of insulin receptor in HepG2 cells: phosphorylation of tyrosine residues 1162/1163, PhosphoDetect insulin receptor ELISA kit. In kind it is cell-based. Particulars: 10 min, PBS with 5 mM glucose, percentage of the response to 100 nM insulin, mean±SEM (n=8). An excerpt: It is generally recognized that the phosphorylation increase activity of receptor to about 200-fold as compared to unphosphorylated one.

Where [2] appears, read: 14 Day from start, 10 mg/kg i.p. daily for 7 days.
The mark [3] stands for this setting: before treatment (baseline of the group).

T1 sequence (P06213 28-758 limits assumed): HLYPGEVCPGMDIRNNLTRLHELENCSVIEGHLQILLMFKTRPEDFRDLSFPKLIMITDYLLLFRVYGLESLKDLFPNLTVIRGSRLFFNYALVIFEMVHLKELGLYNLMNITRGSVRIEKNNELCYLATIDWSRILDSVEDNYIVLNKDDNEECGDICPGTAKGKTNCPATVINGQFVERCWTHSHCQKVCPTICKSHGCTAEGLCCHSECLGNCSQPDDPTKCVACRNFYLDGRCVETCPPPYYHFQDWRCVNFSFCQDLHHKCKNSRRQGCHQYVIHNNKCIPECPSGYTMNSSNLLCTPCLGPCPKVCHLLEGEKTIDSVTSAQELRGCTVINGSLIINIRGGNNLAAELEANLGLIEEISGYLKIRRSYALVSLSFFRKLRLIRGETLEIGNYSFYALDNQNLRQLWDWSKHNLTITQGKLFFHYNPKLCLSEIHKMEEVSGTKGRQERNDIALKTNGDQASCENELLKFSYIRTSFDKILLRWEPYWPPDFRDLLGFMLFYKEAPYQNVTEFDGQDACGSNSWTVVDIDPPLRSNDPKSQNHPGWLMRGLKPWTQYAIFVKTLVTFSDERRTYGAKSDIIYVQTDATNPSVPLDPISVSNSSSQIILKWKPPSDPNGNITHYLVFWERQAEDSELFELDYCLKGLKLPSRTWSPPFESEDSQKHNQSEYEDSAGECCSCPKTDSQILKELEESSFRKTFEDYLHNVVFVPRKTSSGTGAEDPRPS
T1 sequence (P06213 763-1382 limits assumed): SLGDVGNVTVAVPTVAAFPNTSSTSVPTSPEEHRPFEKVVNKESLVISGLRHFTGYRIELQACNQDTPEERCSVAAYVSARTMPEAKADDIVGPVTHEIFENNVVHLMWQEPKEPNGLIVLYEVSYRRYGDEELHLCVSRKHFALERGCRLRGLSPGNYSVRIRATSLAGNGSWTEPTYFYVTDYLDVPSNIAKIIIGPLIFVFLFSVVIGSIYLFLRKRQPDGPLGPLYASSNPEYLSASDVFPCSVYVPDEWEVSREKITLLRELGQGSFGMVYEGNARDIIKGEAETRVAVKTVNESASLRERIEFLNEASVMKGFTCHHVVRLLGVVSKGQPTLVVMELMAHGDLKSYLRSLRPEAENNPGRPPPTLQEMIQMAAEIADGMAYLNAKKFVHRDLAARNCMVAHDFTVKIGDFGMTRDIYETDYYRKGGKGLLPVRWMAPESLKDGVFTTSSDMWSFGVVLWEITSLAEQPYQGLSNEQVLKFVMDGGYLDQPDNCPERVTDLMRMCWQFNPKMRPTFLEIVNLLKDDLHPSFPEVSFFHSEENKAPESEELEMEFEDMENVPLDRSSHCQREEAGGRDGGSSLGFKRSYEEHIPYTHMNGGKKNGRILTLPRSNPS

In assay [1] (setting [2]), `CCc1nc(C)c(C)c(C)c1O.O=C(O)CCC(=O)O` [2-Ethyl-4,5,6-trimethyl-3-hydroxypyridine, succinic acid salt (1:1)] came in with a Glucose of 7.3 ± 1.1 mmol/L, an Insulin of 2.3 ± 0.5 ng/mL and a Triglycerides of 1.6 ± 0.3 mmol/L. In assay [1] (setting [3]), the Glucose was determined as 16.0 ± 2.6 mmol/L, the Insulin turned out to be 11.4 ± 2.0 ng/mL and the Triglycerides came out at 3.1 ± 0.2 mmol/L. Further, the “Insulin receptor phosphorylation, %” value on insulin receptor (compound 50 μM alone) was determined as 13 ± 2%. In addition, the “Insulin receptor phosphorylation, %” value at insulin receptor (insulin 5 nM + compound 50 μM) is recorded as 62 ± 8 %.

In assay [1] (setting [2]), `CCc1nc(C)cc(C)c1O.O=C(O)CCC(=O)O` [2-Ethyl-4,6-dimethyl-3-hydroxypyridine, succinic acid salt (1:1)] displayed a Glucose of 8.5 ± 1.3 mmol/L, an Insulin of 2.9 ± 0.4 ng/mL and a Triglycerides of 1.8 ± 0.4 mmol/L. In assay [1] (setting [3]), this molecule gave a Glucose of 15.9 ± 2.1 mmol/L, an Insulin of 11.2 ± 1.7 ng/mL and a Triglycerides of 2.9 ± 0.4 mmol/L. The “Insulin receptor phosphorylation, %” value on insulin receptor (compound 50 μM alone) was determined as 14 ± 4%. Further, at insulin receptor (insulin 5 nM + compound 50 μM), the “Insulin receptor phosphorylation, %” value turned out to be 56 ± 7 %.
